# PMC6199279, “Design of Peptoid-peptide Macrocycles to Inhibit the β-catenin TCF Interaction in Prostate Cancer” (Nature Communications, 2018)
# Numbered stars: 1 amine (or outer) side, 2 acyl side, 3 side chain; on linkers, the order of the positions; unused ones are H or OH. Square brackets hold non-standard residues; d marks the D form. Peptide text beside a SMILES is read from it. N(2-(2-PhOPh)Et)Gly = O=C(O)CNCCc1ccccc1Oc1ccccc1; Gly(N-3,5-(OMe)2-Ph) = COc1cc(NCC(=O)O)cc(OC)c1; X1 = COc1ccc([C@H](C)N(CC(=O)[*:2])[*:1])cc1; N((CH2)3OiPr)Gly = CC(C)OCCCNCC(=O)O
# How the values were obtained:
# Type in all cases: cell-based
# [1] = tested on: AR luciferase reporter (3xARE); assay: 3x-Androgen Response Element (ARE) luciferase reporter assay in LNCaP-abl cells
# Description: Using a TOP-Flash Wnt luciferase reporter, we tested the 12 oligomers identified from in silico modeling for inhibitory activity (Fig. 2b). […] We also employed a 3 × -Androgen Response Element (ARE) luciferase reporter to measure the effect on AR activity. […] As additional controls, we obtained previously developed, commercially available Wnt inhibitors and tested them in the Wnt luciferase assay (Supplementary Fig. 5).
# We next characterized the dose response curves for compound 13 in the Wnt and AR luciferase reporters. The linear version of 13 (linear 13: NH2-|N-mpp, N-dmp, N-ipp, N-Smpe, N-Smpe, D-Ala|-OH) was used as a control compound. […] To test direct binding, we pre-formed dynamic light scattering (DLS) with β-catenin in the presence of vehicle, compound 13, and α-cyclodextrin. […] HEK293 cells were transiently transfected with a plasmid expressing full length, myc-tagged TCF4. After 48 h treatment with either vehicle (DMSO) or 10 µM 13, cells were lysed and myc-TCF4 protein was immunoprecipitated.
# LNCaP-abl and LNCaP-95 cells were cultured in indicator free RPMI 1640 media (Life) supplemented with 10% charcoal stripped FBS, 1% pennicillin/streptomycin, and 1% L-Glutamine. HEK-293 Cells were cultured in DMEM media (Life) supplemented with 10%FBS and 1% pennicillin/streptomycin. A549 and U2OS cells were cultured in RPMI 1640 media (Life) and McCoy’s 5 A modified media (Life), respectively, both supplemented with 10%FBS and 1% pennicillin/streptomycin. LNCaP-abl, and LNCaP-95 cell lines were generous gifts from Z. Culig (Innsbruck Medical University, Austria) and J. Isaacs (Johns Hopkins University, Baltimore, MD), respectively. Cell lines were authenticated by STR profiling (Genetica Cell Line Testing; Burlington, NC). […] Both were measured using the ONE-Glo detection kit (Promega) and data is standardized to CellTiter-Fluor (Promega) viability readings to account for potential variations in well to well cell number. […] Total protein concentration in cell lysates were determined using Pierce Rapid Gold BCA Protein Assay Kit (Thermo). […]
# [2] = tested on: LNCaP-abl and LNCaP-95 cells; assay: RT-qPCR of Wnt and AR target genes; conditions: 10 µM, 24 h
# Experimental: To test the effect of 13 in a model of prostate cancer, we used the LNCaP-abl and LNCaP-95 cell lines. These cell lines were derived from androgen-sensitive LNCaP cells, and passaged in androgen-deprived media to mimic the development of castration resistance in patient tumors[54],[55]. We first isolated mRNA from LNCaP-abl and LNCaP-95 cells treated with vehicle, 10 µM 13 and linear 13 for 24 h to check the expression of endogenous Wnt and AR target genes (Fig. 4a). […] AR-V7 is particularly challenging to target as most AR antagonists target the ligand binding domain. […] To check if the changes in Wnt and AR target gene expression translated into effects on growth, the viability of LNCaP-abl and LNCaP-95 cells was determined after 5 days of treatment (Fig. 4b).
# Data are presented as mean and SD (n = 3) of three independent experiments (a) or representative of three independent experiments (b, c).
# LNCaP-abl and LNCaP-95 cells were cultured in indicator free RPMI 1640 media (Life) supplemented with 10% charcoal stripped FBS, 1% pennicillin/streptomycin, and 1% L-Glutamine. HEK-293 Cells were cultured in DMEM media (Life) supplemented with 10%FBS and 1% pennicillin/streptomycin. A549 and U2OS cells were cultured in RPMI 1640 media (Life) and McCoy’s 5 A modified media (Life), respectively, both supplemented with 10%FBS and 1% pennicillin/streptomycin. LNCaP-abl, and LNCaP-95 cell lines were generous gifts from Z. Culig (Innsbruck Medical University, Austria) and J. Isaacs (Johns Hopkins University, Baltimore, MD), respectively. Cell lines were authenticated by STR profiling (Genetica Cell Line Testing; Burlington, NC). A549 and U2OS were purchased from ATCC (product numbers CCL-185 and HTB-96). Cell lines were routinely screened for mycoplasma. Luciferase assays were conducted using stably transfected TOP-flash and 3xARE LNCaP-abl cell lines. For the Wnt pathway, TOP-Flash LNCaP-abl cells were treated with 1 nM siAPC (a 1:1:1 mix of Ambion Silencer Silect siAPC RNA, ID#s s1433, s1434, s1435) for 24 h and seeded into 384-well plates at 5000 cells/well, followed by 24 h of treatment with compound. For the AR-pathway, 3xARE LNCaP-abl cells were seeded into 384-well plates at 5000 cells per well, treated for 48 h with compound, with the addition of R1881 for the final 8 h. Both were measured using the ONE-Glo detection kit (Promega) and data is standardized to CellTiter-Fluor (Promega) viability readings to account for potential variations in well to well cell number. Control Wnt inhibitors were purchased from Sigma with the exception of PRI-724 which was purchased from Selleckchem. Co-immunoprecipitation was carried out using HEK293 cells transfected with either myc-TCF (addgene #32738) or myc-TCF dominant negative (addgene #32739) followed by 48 h of treatment with compound. Cells were lysed using Triton lysis buffer and 1 mg total protein was incubated overnight at 4 C with 40 µl anti-cMyc magnetic beads (Thermo). Total protein concentration in cell lysates were determined using Pierce Rapid Gold BCA Protein Assay Kit (Thermo). The beads were washed 3× with lysis buffer then boiled in 2X sample loading dye.
# [3] = tested on: A549 (lung adenocarcinoma) cells; assay: 2D proliferation (CellTiter-Fluor viability), A549; conditions: Wnt-independent cell line, 5 days
compound,measurement,setting,value
"COc1ccc([C@H](C)N2CC(=O)N[C@H](C)C(=O)N(CCc3ccccc3Oc3ccccc3)CC(=O)N(c3cc(OC)cc(OC)c3)CC(=O)N(CCCOC(C)C)CC(=O)N([C@@H](C)c3ccc(OC)cc3)CC2=O)cc1 [Compound 13] (cyclo([dA][N(2-(2-PhOPh)Et)Gly][Gly(N-3,5-(OMe)2-Ph)][N((CH2)3OiPr)Gly][X1][X1]))",Inhibition of AR signaling (3xARE luciferase),"[1]; 10 µM compound, relative to vehicle",more effective
same,IC50,"[1]; 3xARE LNCaP-abl cells, 48 h compound, androgen-activated, read-out: IC50 for inhibition of the AR luciferase reporter",1.02 µM
same,AR mRNA,[2],decreased
same,AR-V7 transcription,[2],decreased
same,Cyclin D1 mRNA,[2],decreased
same,E-cadherin transcription,[2],increased
same,FKBP5 mRNA,[2],decreased
same,PSA mRNA,[2],decreased
same,cMYC mRNA,[2],decreased
same,Effect on proliferation of A549 cells,[3],no effect
